{"source": "patent US7897637B2", "about": "“Methods of using flavonoids to enhance memory” (The Salk Institute for Biological Studies, priority 2006, dated 2011)", "key": {"ERK [1]": {"test_system": "ERK", "experiment": "ERK activation in PC12 cells (immunoblotting, anti-phospho ERK)", "type": "cell-based", "conditions": "50 μM PD98059, 30 minutes pretreatment, flavonoids 4 hours", "method": "PC12 cells were treated with the optimal concentrations for differentiation of the different derivatives for 10 minutes to 6 hours; then the cells were scraped into sample buffer and analyzed by SDS-PAGE and immunoblotting with an antibody specific for phosphorylated ERKs (anti-phospho ERK) and an antibody that detects phosphorylated and unphosphorylated ERKs (anti-ERK),\nERK activation by the different flavonoids was blocked by pretreatment with PD98059, an inhibitor of MEK, the kinase which phosphorylates ERK. PC12 cells in N2 medium were untreated (control) or treated with 10 μM fisetin, 25 μM 3,3′-DHF, 25 μM 3,4′-DHF, 25 μM 3′,4′-DHF, 5 μM 3,3′,4′-THF, 25 μM 3,7,3′-THF, 25 μM 3,7,4′-THF or 10 μM 7,3′,4′-THF for 4 hours in the absence or presence of 50 μM PD98059 (30 minutes pretreatment). The cells then were scraped into sample buffer and analyzed by SDS-PAGE and immunoblotting with an antibody specific for phosphorylated ERKs (anti-phospho ERK) and an antibody that detects phosphorylated and unphosphorylated ERKs (anti-ERK). […]\nPC12 cells in N2 medium were treated with the flavonoids as described in the text and, after the indicated time periods, the cells were solubilized in SDS sample buffer containing 0.1 mM Na3VO4 and 1 mM phenylmethylsulfonyl fluoride (PMSF), boiled for 5 minutes and either analyzed immediately or stored frozen at −70° C. […]"}, "ERK [2]": {"test_system": "ERK", "experiment": "ERK activation in primary cortical neuron cultures (immunoblotting)", "type": "cell-based, rat", "conditions": "50 μM PD98059 pretreatment, 10 μM fisetin 4 hours", "method": "(§1) The average phosphoprotein signal from the blots was quantified by densitometry and normalized to total protein,\n(§2) Five (5) day old cortical cultures were next pretreated with 50 μM of the MEK inhibitor, PD98059, before the addition of 10 μM fisetin for 4 hours.\n(§3) Primary cultures of rat cortical neurons were prepared as previously described by Li et al. (Neuron, 19:453-63, 1997, herein incorporated by reference as to the method). Analysis of ERK and CREB phosphorylation was performed using SDS-polyacrylamide gel electrophoresis and immunoblotting as previously described by Sagara et al. (J. Neurochem., 90:1144-1155, 2004) using equal amounts of protein from 5 day old cortical cultures. Blots were scanned and quantified using NIH Image. Results were analyzed using an unpaired Student's t-test."}, "HT22 cells": {"test_system": "HT22 cells", "experiment": "Protection of HT22 cells from oxidative glutamate toxicity (MTT assay)", "type": "cell-based, mouse", "conditions": "5 mM glutamate ± 50 μM PD98059, 24 hours", "description": "Fisetin is effective at protecting nerve cells from oxidative stress-induced death (Ishige et al., Free Radic. Biol. Med., 30:433-446, 2001). This Example illustrates the structure-activity relationship between fisetin derivatives and neuroprotection in a model of oxidative glutamate toxicity using mouse HT22 cells. This pathway of programmed cell death is initiated by the addition of glutamate to the extracellular medium. Glutamate inhibits the uptake of cystine which is required for glutathione (GSH) biosynthesis, resulting in the depletion of GSH in neurons (for review see Tan et al., Curr. Top. Med. Chem., 1:497-506, 2001). Subsequently, this decrease in cellular GSH results in the production of reactive oxygen species (ROS) by mitochondria. The ROS accumulation then causes Ca^+2 influx from the extracellular medium which leads to cell death.\nHT22 cells were untreated (Ct) or treated with 10 μM fisetin, 25 μM 3,3′-DHF, 25 μM 3,4′-DHF, 2.5 μM 3′,4′-DHF, 2.5 μM 3,3′,4′-THF 25 μM 3,7,3′-THF, 25 μM 3,7,4′-THF or 10 μM 7,3′,4′-THF in the presence of 5 mM glutamate±50 μM PD98059. Twenty four (24) hours later cell survival was measured by the MTT assay.\nHT22 cells were untreated (Ct) or treated with 10 μM fisetin, 25 μM 3,3′-DHF. […] Protection by all of the other flavonoids was unaffected by BSO.\nCell viability was determined by a modified version of the 3-(4,5-dimethylthiazol-2-yl)-2,5-diphenyl tetrazolium bromide (MTT) assay based on the standard procedure (Hansen et al., J. Immunol. Meth., 119:203-10, 1989). Briefly, cells were seeded onto 96-well microtiter plates at a density of 5×10^3 cells per well. The next day, the medium was replaced with DMEM supplemented with 7.5% DFCS and the cells were treated with the different flavonoids alone or in the presence of 5 mM glutamate. Twenty four hours later, the medium in each well was aspirated and replaced with fresh medium containing 2.5 μg/ml MTT. After 4 hours of incubation at 37° C., cells were solubilized with 100 μl of a solution containing 50% dimethylformamide and 20% SDS (pH 4.7). The absorbance at 570 nm was measured on the following day with a microplate reader (Molecular Devices). Results obtained from the MTT assay correlated directly with the extent of cell death as confirmed visually. Controls employing wells without cells were used to determine the effects of the agents upon the assay chemistry."}, "CREB [3]": {"test_system": "CREB", "experiment": "CREB activation in primary cortical neuron cultures (immunoblotting)", "type": "cell-based, rat", "conditions": "50 μM PD98059 pretreatment, 10 μM fisetin 4 hours", "method": "as §1, §2, §3"}, "ERK2 (p42)": {"test_system": "ERK2 (p42)", "experiment": "ERK2 (p42) phosphorylation in hippocampal slices (immunoblotting, densitometry)", "type": "cell-based, rat", "conditions": "inhibitor alone (50 μM PD98059 or 10 μM U0126, 30 minutes)", "method": "(§4) Western blots panels A and B) of hippocampal slices treated with (A) 1 μM fisetin or (B) pretreated for 30 minutes with either 50 μM PD98059 (PD) or 10 μM U0126 (U) before the addition of 1 μM fisetin for 5 minutes, which blots were probed with the indicated antibodies.\n(§5) Hippocampal slices in artificial cerebral spinal fluid (ACSF) were treated with either 1 μM fisetin for 5-20 minutes or pretreated for 30 minutes with either 50 μM PD98059 (PD) or 10 μM U0126 (J) before the addition of 1 μM fisetin for 5 minutes. Equal amounts of protein were analyzed by SDS-PAGE and immunoblotting with antibodies to phospho-ERK and phospho-CRFB along with antibodies to the unphosphorylated forms of the proteins. The average phosphoprotein signal from the blots was quantified by densitometry and normalized to total protein was plotted±S.D."}, "CREB [4]": {"test_system": "CREB", "experiment": "CREB phosphorylation in hippocampal slices (immunoblotting, densitometry)", "type": "cell-based, rat", "conditions": "inhibitor alone (50 μM PD98059 or 10 μM U0126, 30 minutes)", "method": "as §4, §5"}, "[5]": {"test_system": "CA1 area of rat hippocampal slices", "experiment": "Long-term potentiation in CA1 area of hippocampal slices", "type": "cell-based"}, "ERK1 (p44)": {"test_system": "ERK1 (p44)", "experiment": "ERK1 (p44) phosphorylation in hippocampal slices (immunoblotting, densitometry)", "type": "cell-based, rat", "conditions": "inhibitor alone (50 μM PD98059 or 10 μM U0126, 30 minutes)", "method": "as §4, §5"}, "ERK [6]": {"test_system": "ERK", "conditions": "Vanhoutte et al. 1999; English & Sweatt 1997; cited from earlier work"}, "CREB [7]": {"test_system": "CREB", "conditions": "Vanhoutte et al. 1999; cited from earlier work"}}, "data": [{"smiles": "COc1cccc(-c2cc(=O)c3ccccc3o2)c1N", "note": "[PD98059, reference compound]", "values": [{"measurement": "effect on ERK activation by the different flavonoids", "setting": "ERK [1]", "value": "blocked"}, {"measurement": "effect on activation of ERK by fisetin", "setting": "ERK [2]", "value": "blocked"}, {"measurement": "effect on the ability of fisetin or its derivatives to prevent cell death", "setting": "HT22 cells", "value": "no significant effect"}, {"measurement": "effect on activation of CREB by fisetin", "setting": "CREB [3]", "value": "blocked"}, {"measurement": "p42 phosphoprotein signal normalized to total protein", "setting": "ERK2 (p42)", "value": "0.83±0.08"}, {"measurement": "CREB phosphoprotein signal normalized to total protein", "setting": "CREB [4]", "value": "0.64±0.11"}, {"measurement": "effect on fisetin-induced facilitation of LTP", "setting": "[5]; PD98059 added 10 minutes prior to fisetin", "value": "blocked"}, {"measurement": "effect on basal synaptic transmission", "setting": "[5]; no tetanus", "value": "no effect"}, {"measurement": "p44 phosphoprotein signal normalized to total protein", "setting": "ERK1 (p44)", "value": "0.75±0.5"}]}, {"smiles": "N[C@@H](CCC(=O)O)C(=O)O", "note": "[glutamate]", "values": [{"measurement": "increase in ERK phosphorylation reported following treatment of slices", "setting": "ERK [6]", "value": "1.5-2 fold"}, {"measurement": "increase in CREB phosphorylation reported following treatment of slices", "setting": "CREB [7]", "value": "~2.5", "unit": "fold"}]}]}
